Test: xn = mol fraction of the nth substance listed
Conditions: 92.3 kPa, Liquid; for viscosity: Concentric cylinders viscometry; for speed of sound: Frequency=3 MHz, Single path-length method; for mass density: Vibrating tube method

OCCOCCOCCO [triethylene glycol] + O
Conditions	mass density, 303.15 K [kg/m3]	mass density, 308.15 K [kg/m3]	speed of sound, 303.15 K [m/s]	speed of sound, 308.15 K [m/s]	viscosity, 303.15 K [mPa·s]	viscosity, 308.15 K [mPa·s]
x1 = 0.0101	1006.7	1005.03	1546.6	1554.2	–	–
x1 = 0.0196	1016.05	1014.27	1577.2	1582.2	–	–
x1 = 0.025	1021.12	1019.05	–	–	1.425	1.265
x1 = 0.029	1025.03	1022.86	1604.2	1606.8	–	–
x1 = 0.0381	1032.5	1030.16	1626.5	1627	–	–
x1 = 0.0489	1040.16	1037.64	–	–	2.135	1.865
x1 = 0.0496	1041.07	1038.52	1650.4	1648.6	–	–
x1 = 0.0601	1048.1	1045.38	1668.4	1664.8	–	–
x1 = 0.0689	1053.32	1050.48	1680.7	1675.8	–	–
x1 = 0.0754	1056.69	1053.78	–	–	3.109	2.68
x1 = 0.0801	1059.3	1056.32	1693.4	1687	–	–
x1 = 0.0905	1064.27	1061.17	1702.5	1695	–	–
x1 = 0.0993	1068.24	1065.07	–	–	4.145	3.561
x1 = 0.0996	1068.21	1065.01	1708.8	1700.4	–	–
x1 = 0.1479	1083.73	1080.2	1722.1	1710.8	–	–
x1 = 0.15	1085.03	1081.49	–	–	6.732	5.617
x1 = 0.1993	1094.5	1090.78	–	–	9.456	7.962
x1 = 0.2004	1093.95	1090.24	1716.5	1703.7	–	–
x1 = 0.2462	1099.63	1095.85	1705.3	1691.9	–	–
x1 = 0.2526	1100.4	1096.6	–	–	12.39	10.33
x1 = 0.2998	1103.65	1099.82	–	–	14.86	12.25
x1 = 0.3004	1103.99	1100.16	1690.6	1676.8	–	–
x1 = 0.3474	1106.59	1102.74	1678.1	1664.2	–	–
x1 = 0.3539	1106.3	1102.46	–	–	17.36	14.19
x1 = 0.3948	1108.5	1104.64	1666.6	1652.5	–	–
x1 = 0.4009	1108.18	1104.33	–	–	19.33	15.72
x1 = 0.4467	1110.04	1106.18	1655.4	1641.2	–	–
x1 = 0.4492	1109.87	1106.02	–	–	21.06	17.03
x1 = 0.4992	1111.36	1107.51	–	–	22.58	18.22
x1 = 0.5021	1111.28	1107.42	1644.9	1630.7	–	–
x1 = 0.548	1112.08	1108.22	1637.5	1623.2	–	–
x1 = 0.5484	1112.51	1108.65	–	–	23.9	19.23
x1 = 0.5923	1112.73	1108.87	1631	1616.6	–	–
x1 = 0.5996	1113.32	1109.45	–	–	24.96	20.07
x1 = 0.6442	1113.33	1109.46	1624.5	1610.1	–	–
x1 = 0.6506	1113.74	1109.87	–	–	25.86	20.77
x1 = 0.701	1113.89	1110.02	–	–	26.76	21.48
x1 = 0.7095	1113.94	1110.08	1617.7	1603.2	–	–
x1 = 0.7531	1114.3	1110.43	1613.4	1598.8	–	–
x1 = 0.7567	1113.98	1110.11	–	–	27.55	22.1
x1 = 0.7859	1114.55	1110.68	1610.5	1595.9	–	–
x1 = 0.8035	1114.18	1110.31	–	–	28.08	22.51
x1 = 0.8387	1114.87	1111	1606.6	1591.9	–	–
x1 = 0.8406	1114.51	1110.64	–	–	28.48	22.83
x1 = 0.8981	1115.27	1111.39	–	–	28.88	23.14
x1 = 0.9031	1115.25	1111.37	1602	1587.2	–	–
x1 = 0.9181	1115.31	1111.42	1601.3	1586.5	–	–
x1 = 0.9344	1115.4	1111.52	1600.4	1585.5	–	–
x1 = 0.9489	1115.8	1111.91	–	–	29.26	23.46
x1 = 0.9569	1115.5	1111.62	1599	1584.2	–	–
x1 = 0.9782	1115.59	1111.71	1597.9	1583	–	–
x1 = 1	1115.7	1111.81	1596.6	1581.7	29.59	23.72

Reference: the NIST ThermoML archive (doi:10.1016/j.jct.2018.02.022)
